Activity calls are given as the source filed them. No cut-off for these calls is given here.
Assays:
[1] = target: Peroxisome proliferator-activated receptor delta (Homo sapiens, UniProt Q03181); test: (§1) Agonist activity at GAL4 DNA-binding domain fused PPARdelta receptor (unknown origin) ligand binding domain expressed in UAS-bla HEK 293T cells assessed as beta-lactamase transcriptional activation by FRET-based GeneBLAzer assay; format: cell-based
Estrogen receptor [2] = target: T1, Estrogen receptor (Homo sapiens, UniProt P03372); test: Agonist activity at full length ERalpha (unknown origin) after 24 hrs by ERE-driven luciferase reporter gene assay
T1 sequence (P03372 whole entry): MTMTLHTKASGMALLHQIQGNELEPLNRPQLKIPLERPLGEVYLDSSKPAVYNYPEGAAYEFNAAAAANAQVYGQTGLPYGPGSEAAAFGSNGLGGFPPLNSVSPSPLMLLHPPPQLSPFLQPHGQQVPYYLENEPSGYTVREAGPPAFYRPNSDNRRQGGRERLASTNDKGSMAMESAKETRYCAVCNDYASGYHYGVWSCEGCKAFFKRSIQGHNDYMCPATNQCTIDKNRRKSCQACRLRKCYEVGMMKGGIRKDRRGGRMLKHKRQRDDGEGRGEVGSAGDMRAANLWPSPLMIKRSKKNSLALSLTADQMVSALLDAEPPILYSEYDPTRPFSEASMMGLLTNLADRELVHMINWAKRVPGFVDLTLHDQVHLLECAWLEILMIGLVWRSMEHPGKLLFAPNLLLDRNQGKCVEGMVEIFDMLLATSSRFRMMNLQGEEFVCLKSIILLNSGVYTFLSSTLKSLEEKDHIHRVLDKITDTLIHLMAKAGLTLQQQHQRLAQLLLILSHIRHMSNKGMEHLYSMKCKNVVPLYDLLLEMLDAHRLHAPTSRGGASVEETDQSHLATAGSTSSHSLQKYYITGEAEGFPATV

Estrogen receptor beta [3] = target: T2, Estrogen receptor beta (Homo sapiens, UniProt Q92731)
Description: Antagonist activity at full length ERbeta (unknown origin) assessed as reduction in E2 induced response after 24 hrs by cell based ERE-driven luciferase reporter gene assay

Estrogen receptor beta [4] = target: T2, Estrogen receptor beta; test: Agonist activity at full length ERbeta (unknown origin) after 24 hrs by cell based ERE-driven luciferase reporter gene assay
Estrogen receptor [5] = target: T1, Estrogen receptor; test: Inhibition of fluorescein-tagged estrogen binding to GST-tagged ERalpha (unknown origin) ligand binding domain after 1 hr by LanthaScreen TR-FRET assay
Estrogen receptor [6] = target: T1, Estrogen receptor; test: Antagonist activity at full length ERalpha (unknown origin) assessed as reduction in E2 induced response after 24 hrs by cell based ERE-driven luciferase reporter gene assay
Estrogen receptor beta [7] = target: T2, Estrogen receptor beta; test: Inhibition of fluorescein-tagged estrogen binding to GST-tagged ERbeta (unknown origin) ligand binding domain after 1 hr by LanthaScreen TR-FRET assay
[8] = target: Vitamin D3 receptor (Homo sapiens) (UniProt P11473); test: Agonist activity at GAL4 DNA-binding domain fused VDR (unknown origin) ligand binding domain expressed in UAS-bla HEK 293T cells assessed as beta-lactamase transcriptional activation by FRET-based GeneBLAzer assay; format: cell-based
Estrogen receptor beta [9] = target: T2, Estrogen receptor beta; test: Agonist activity at GAL4 DNA-binding domain fused ERbeta (unknown origin) ligand binding domain expressed in UAS-bla GripTite 293 cells assessed as beta-lactamase transcriptional activation by FRET-based GeneBLAzer assay; format: cell-based
[10] = target: Mineralocorticoid receptor (Homo sapiens) (UniProt P08235); test: Agonist activity at GAL4 DNA-binding domain fused MR (unknown origin) ligand binding domain expressed in UAS-bla […] assessed as beta-lactamase transcriptional activation by FRET-based GeneBLAzer assay; format: cell-based
[11] = target: Peroxisome proliferator-activated receptor delta (Homo sapiens) (UniProt Q03181); test: as §1; format: cell-based
Estrogen receptor [12] = target: T1, Estrogen receptor; test: Agonist activity at ERalpha (unknown origin) ligand binding domain assessed as fluorescein-labeled coactivator peptide recruitment by LanthaScreen TR-FRET assay
Estrogen receptor beta [13] = target: T2, Estrogen receptor beta; test: Agonist activity at ERbeta (unknown origin) ligand binding domain assessed as fluorescein-labeled coactivator peptide recruitment by LanthaScreen TR-FRET assay
Homo sapiens [14] = species on record: Homo sapiens; test: Selectivity index, ratio of EC50 for ERalpha (unknown origin) LBD by fluorescein-labeled coactivator peptide recruitment based LanthaScreen TR-FRET assay to EC50 for ERbeta (unknown origin) LBD by fluorescein-labeled coactivator peptide recruitment based LanthaScreen TR-FRET assay
[15] = target: Estrogen receptor (Homo sapiens) (UniProt P03372); test: Agonist activity at GAL4 DNA-binding domain fused ERalpha (unknown origin) ligand binding domain expressed in UAS-bla GripTite 293 cells assessed as beta-lactamase transcriptional activation by FRET-based GeneBLAzer assay; format: cell-based
[16] = target: Progesterone receptor (Homo sapiens) (UniProt P06401); test: (§2) Agonist activity at GAL4 DNA-binding domain fused PR (unknown origin) ligand binding domain expressed in UAS-bla HEK 293T cells assessed as beta-lactamase transcriptional activation by FRET-based GeneBLAzer assay; format: cell-based
Homo sapiens [17] = species on record: Homo sapiens; test: Selectivity index, ratio of IC50 for full-length human ERalpha to IC50 for full length human ERbeta
Homo sapiens [18] = species on record: Homo sapiens; test: Selectivity ratio for ERbeta (unknown origin) over ERalpha (unknown origin)
Cytochrome P450 3A4 = Cytochrome P450 3A4 (Homo sapiens, UniProt P08684); test: Inhibition of CYP3A4 (unknown origin) using luciferin-IPA as substrate preincubated for 10 mins followed by NADPH regeneration system addition and measured after 10 to 30 mins by Promega P450-GloScreening assay; format: ADME
[19] = target: 5-hydroxytryptamine receptor 6 (Homo sapiens) (UniProt P50406); test: Displacement of [3H]-LSD from human 5-HT6 receptor expressed in stable HEK cells at 10 uM after 90 mins by microbeta scintillation counting method; format: cell-based
[20] = target: Beta-1 adrenergic receptor (Homo sapiens) (UniProt P08588); test: Displacement of [3H]-Pindolol from human adrenergic beta1 receptor expressed in Flp-In CHO cells at 10 uM after 90 mins by microbeta scintillation counting method; format: cell-based
[21] = target: 5-hydroxytryptamine receptor 2B (Homo sapiens) (UniProt P41595); test: Displacement of [3H]-LSD from human 5-HT2B receptor expressed in stable HEK cells at 10 uM after 90 mins by microbeta scintillation counting method; format: cell-based
[22] = target: Alpha-1A adrenergic receptor (Homo sapiens) (UniProt P35348); test: Displacement of [3H]-Prazosin from human adrenergic alpha1A receptor at 10 uM after 90 mins by microbeta scintillation counting method
[23] = target: Histamine H2 receptor (Homo sapiens) (UniProt P25021); test: Displacement of [3H]-histamine from human histamine H2 receptor expressed in HEKT cells at 10 uM after 90 mins by microbeta scintillation counting method; format: cell-based
[24] = target: Sigma non-opioid intracellular receptor 1 (Homo sapiens) (UniProt Q99720); test: Displacement of [3H]-Pentazocine from human sigma1 receptor expressed in HEKT cells at 10 uM after 90 mins by microbeta scintillation counting method; format: cell-based
[25] = target: Histamine H2 receptor (Homo sapiens) (UniProt P25021); test: Displacement of [125I]-iodoaminopotentidine from human histamine H2 receptor expressed in HEK Flp-In cells at 10 uM after 90 mins by microbeta scintillation counting method; format: cell-based
[26] = target: Beta-3 adrenergic receptor (Homo sapiens) (UniProt P13945); test: Displacement of [3H]-CGP12177 from human adrenergic beta3 receptor expressed in Flp-In HEK cells at 10 uM after 90 mins by microbeta scintillation counting method; format: cell-based
Cytochrome P450 1A2 = Cytochrome P450 1A2 (Homo sapiens, UniProt P05177); test: Inhibition of CYP1A2 (unknown origin) using luciferin-ME as substrate preincubated for 10 mins followed by NADPH regeneration system addition and measured after 10 to 30 mins by Promega P450-GloScreening assay; format: ADME
[27] = target: 5-hydroxytryptamine receptor 1A (Homo sapiens) (UniProt P08908); test: Displacement of [3H]-WAY100635 from human 5HT1A receptor expressed in stable CHO cells at 10 uM after 90 mins by microbeta scintillation counting method; format: cell-based
[28] = target: Sigma intracellular receptor 2 (Homo sapiens) (UniProt Q5BJF2); test: Displacement of [3H]-ditolylguanidine from human sigma2 receptor expressed in HEKT cells at 10 uM after 90 mins by microbeta scintillation counting method; format: cell-based
[29] = Solubility of the compound in buffer containing 20 mM potassium phosphate of pH 7.5 and 1% DMSO up to 250 uM by nephelometry; format: physicochemical
Cytochrome P450 2D6 = Cytochrome P450 2D6 (Homo sapiens, UniProt P10635); test: Inhibition of CYP2D6 (unknown origin) using luciferin-ME EGE as substrate preincubated for 10 mins followed by NADPH regeneration system addition and measured after 30 to 45 mins by Promega P450-GloScreening assay; format: ADME
[30] = target: 5-hydroxytryptamine receptor 7 (Homo sapiens) (UniProt P34969); test: Displacement of [3H]-LSD from human 5-HT7A receptor expressed in stable HEK cells at 10 uM after 90 mins by microbeta scintillation counting method; format: cell-based
MCF7 = test: Antiproliferative activity against human MCF7 cells at 0.01 to 10 uM after 24 hrs by MTT assay; format: functional, cell-based
[31] = target: Alpha-1B adrenergic receptor (Homo sapiens) (UniProt P35368); test: Displacement of [3H]-Prazosin from human adrenergic alpha1B receptor expressed in HEKT cells at 10 uM after 90 mins by microbeta scintillation counting method; format: cell-based
[32] = target: 5-hydroxytryptamine receptor 1D (Homo sapiens) (UniProt P28221); test: Displacement of [3H]-5-CT from human 5-HT1D receptor expressed in HEKT cells at 10 uM after 90 mins by microbeta scintillation counting method; format: cell-based
hERG (KCNH2) = hERG (KCNH2) (Homo sapiens, UniProt Q12809); test: Displacement of [3H]-dofetilide from human ERG expressed in HEK cells at 10 uM after 90 mins by microbeta scintillation counting method; format: cell-based; settings: HEK cells expressing human ERG, probe [3H]-dofetilide
Cytochrome P450 2C9 = Cytochrome P450 2C9 (Homo sapiens, UniProt P11712); test: Inhibition of CYP2C9 (unknown origin) using luciferin-H as substrate preincubated for 10 mins followed by NADPH regeneration system addition and measured after 30 mins by Promega P450-GloScreening assay; format: ADME
Progesterone receptor = Progesterone receptor (Homo sapiens, UniProt P06401); test: as §2; format: cell-based
Progesterone receptor, sequence (P06401 whole entry): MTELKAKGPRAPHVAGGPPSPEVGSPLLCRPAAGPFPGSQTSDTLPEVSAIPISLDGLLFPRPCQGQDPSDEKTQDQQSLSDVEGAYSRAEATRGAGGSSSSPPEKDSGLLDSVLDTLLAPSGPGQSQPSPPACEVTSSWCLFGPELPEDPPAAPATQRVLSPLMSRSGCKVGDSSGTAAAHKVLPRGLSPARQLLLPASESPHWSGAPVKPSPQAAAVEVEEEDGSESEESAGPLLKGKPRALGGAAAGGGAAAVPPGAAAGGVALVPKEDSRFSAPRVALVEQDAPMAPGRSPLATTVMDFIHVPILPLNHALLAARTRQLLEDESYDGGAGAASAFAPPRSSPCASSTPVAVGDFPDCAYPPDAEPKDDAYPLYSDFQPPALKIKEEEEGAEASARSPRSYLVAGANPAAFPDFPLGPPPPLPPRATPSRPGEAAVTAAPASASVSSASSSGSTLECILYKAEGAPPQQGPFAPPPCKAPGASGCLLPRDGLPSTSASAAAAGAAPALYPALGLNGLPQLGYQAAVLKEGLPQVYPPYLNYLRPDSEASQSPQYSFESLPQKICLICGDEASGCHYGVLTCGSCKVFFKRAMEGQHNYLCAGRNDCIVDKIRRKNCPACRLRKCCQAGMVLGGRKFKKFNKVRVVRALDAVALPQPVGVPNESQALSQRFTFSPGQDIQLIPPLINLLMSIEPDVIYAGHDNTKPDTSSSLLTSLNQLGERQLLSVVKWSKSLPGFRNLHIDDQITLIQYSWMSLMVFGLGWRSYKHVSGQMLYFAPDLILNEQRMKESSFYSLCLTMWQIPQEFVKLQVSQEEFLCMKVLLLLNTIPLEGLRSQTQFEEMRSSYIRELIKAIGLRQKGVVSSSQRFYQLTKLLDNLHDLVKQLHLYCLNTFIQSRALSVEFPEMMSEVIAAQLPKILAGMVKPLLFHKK

T2 sequence (Q92731 whole entry): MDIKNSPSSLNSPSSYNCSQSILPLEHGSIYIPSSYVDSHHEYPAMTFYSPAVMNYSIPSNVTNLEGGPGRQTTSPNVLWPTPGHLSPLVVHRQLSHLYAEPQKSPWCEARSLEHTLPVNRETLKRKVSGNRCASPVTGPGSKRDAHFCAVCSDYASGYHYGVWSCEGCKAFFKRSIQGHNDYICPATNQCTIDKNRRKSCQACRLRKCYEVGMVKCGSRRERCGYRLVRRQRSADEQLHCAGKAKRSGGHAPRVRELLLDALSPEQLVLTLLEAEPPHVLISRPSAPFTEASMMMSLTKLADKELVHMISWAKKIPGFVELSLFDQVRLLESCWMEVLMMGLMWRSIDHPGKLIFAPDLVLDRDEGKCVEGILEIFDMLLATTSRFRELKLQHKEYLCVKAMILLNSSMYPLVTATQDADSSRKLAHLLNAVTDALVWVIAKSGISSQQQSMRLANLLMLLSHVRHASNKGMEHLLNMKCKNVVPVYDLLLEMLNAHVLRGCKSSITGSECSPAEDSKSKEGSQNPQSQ
Histamine H2 receptor (Homo sapiens), sequence (P25021 whole entry): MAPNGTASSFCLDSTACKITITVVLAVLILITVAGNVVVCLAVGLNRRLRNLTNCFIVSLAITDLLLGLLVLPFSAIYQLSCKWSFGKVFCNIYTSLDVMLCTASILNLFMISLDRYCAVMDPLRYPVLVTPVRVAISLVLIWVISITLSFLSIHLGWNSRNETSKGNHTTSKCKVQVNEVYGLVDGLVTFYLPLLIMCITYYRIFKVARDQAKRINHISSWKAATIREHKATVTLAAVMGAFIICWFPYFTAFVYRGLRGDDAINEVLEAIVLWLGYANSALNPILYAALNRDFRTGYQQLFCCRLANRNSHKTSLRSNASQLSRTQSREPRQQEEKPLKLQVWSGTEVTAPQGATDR
Beta-3 adrenergic receptor (Homo sapiens), sequence (P13945 whole entry, looked up): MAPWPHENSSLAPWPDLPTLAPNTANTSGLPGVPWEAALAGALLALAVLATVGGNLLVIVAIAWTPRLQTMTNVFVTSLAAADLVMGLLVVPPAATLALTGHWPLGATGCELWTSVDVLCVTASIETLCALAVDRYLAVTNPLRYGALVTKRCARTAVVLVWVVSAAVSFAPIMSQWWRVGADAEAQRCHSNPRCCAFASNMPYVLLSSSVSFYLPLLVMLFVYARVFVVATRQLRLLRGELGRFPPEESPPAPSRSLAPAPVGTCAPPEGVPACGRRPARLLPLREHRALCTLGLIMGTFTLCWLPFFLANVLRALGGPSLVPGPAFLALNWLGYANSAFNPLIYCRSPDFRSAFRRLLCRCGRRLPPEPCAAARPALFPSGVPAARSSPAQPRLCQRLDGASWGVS
hERG (KCNH2), sequence (Q12809 whole entry): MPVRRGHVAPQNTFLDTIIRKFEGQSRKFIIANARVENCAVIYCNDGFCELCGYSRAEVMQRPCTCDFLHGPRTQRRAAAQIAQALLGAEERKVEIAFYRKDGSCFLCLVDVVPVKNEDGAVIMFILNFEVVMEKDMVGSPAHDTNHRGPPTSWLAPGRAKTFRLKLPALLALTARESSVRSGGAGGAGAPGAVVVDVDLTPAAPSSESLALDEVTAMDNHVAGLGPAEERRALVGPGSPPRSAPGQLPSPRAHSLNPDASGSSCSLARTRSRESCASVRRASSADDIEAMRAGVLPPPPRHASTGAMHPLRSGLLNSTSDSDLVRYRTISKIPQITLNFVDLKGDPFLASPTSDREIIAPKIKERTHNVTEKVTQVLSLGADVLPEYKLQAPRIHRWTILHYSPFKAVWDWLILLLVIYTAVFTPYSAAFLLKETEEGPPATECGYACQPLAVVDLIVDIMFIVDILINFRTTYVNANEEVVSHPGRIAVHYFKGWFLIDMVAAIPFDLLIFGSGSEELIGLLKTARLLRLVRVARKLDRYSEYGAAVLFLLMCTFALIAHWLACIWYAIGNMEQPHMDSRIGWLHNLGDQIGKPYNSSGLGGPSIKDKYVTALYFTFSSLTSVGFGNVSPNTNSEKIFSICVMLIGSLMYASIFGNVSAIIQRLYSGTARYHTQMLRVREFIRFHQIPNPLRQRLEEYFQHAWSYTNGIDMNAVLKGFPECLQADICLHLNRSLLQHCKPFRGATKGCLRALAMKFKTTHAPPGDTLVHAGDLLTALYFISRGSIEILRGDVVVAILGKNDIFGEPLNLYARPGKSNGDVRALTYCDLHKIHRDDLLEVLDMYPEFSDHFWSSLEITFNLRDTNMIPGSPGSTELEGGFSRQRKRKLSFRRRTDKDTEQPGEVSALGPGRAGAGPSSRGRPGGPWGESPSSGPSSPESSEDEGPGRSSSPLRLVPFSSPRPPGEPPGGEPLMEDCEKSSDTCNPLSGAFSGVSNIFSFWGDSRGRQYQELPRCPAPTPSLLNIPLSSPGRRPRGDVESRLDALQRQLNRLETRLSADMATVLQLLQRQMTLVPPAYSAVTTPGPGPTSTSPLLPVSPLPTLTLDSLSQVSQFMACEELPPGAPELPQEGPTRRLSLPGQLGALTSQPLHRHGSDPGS
5-hydroxytryptamine receptor 1A (Homo sapiens), sequence (P08908 whole entry): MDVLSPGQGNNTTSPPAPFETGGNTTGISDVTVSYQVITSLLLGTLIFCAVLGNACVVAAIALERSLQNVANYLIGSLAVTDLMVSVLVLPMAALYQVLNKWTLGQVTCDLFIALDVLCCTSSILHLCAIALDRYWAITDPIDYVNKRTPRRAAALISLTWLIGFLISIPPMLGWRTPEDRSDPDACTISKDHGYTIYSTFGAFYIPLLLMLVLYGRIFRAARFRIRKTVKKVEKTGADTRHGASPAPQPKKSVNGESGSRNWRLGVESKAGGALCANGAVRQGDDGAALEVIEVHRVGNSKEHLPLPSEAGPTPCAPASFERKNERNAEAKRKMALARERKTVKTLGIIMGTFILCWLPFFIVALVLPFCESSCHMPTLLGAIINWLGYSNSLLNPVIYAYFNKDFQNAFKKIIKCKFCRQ
Cytochrome P450 3A4, sequence (P08684 whole entry): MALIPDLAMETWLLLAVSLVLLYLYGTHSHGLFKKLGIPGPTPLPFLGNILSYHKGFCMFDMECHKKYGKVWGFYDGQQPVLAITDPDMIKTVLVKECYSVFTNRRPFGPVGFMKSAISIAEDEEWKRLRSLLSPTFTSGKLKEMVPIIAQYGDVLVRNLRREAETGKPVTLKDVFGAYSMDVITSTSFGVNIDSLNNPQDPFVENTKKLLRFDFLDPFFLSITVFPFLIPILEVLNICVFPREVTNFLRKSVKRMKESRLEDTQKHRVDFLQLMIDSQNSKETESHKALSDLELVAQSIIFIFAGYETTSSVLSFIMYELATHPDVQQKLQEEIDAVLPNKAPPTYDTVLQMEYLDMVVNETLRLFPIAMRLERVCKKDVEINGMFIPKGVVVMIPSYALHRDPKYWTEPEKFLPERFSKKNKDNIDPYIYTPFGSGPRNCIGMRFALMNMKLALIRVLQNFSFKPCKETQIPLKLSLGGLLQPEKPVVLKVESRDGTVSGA
Progesterone receptor (Homo sapiens), sequence (P06401 whole entry, the tested form may be a part): as the sequence (P06401 whole entry) above
Alpha-1B adrenergic receptor (Homo sapiens), sequence (P35368 whole entry): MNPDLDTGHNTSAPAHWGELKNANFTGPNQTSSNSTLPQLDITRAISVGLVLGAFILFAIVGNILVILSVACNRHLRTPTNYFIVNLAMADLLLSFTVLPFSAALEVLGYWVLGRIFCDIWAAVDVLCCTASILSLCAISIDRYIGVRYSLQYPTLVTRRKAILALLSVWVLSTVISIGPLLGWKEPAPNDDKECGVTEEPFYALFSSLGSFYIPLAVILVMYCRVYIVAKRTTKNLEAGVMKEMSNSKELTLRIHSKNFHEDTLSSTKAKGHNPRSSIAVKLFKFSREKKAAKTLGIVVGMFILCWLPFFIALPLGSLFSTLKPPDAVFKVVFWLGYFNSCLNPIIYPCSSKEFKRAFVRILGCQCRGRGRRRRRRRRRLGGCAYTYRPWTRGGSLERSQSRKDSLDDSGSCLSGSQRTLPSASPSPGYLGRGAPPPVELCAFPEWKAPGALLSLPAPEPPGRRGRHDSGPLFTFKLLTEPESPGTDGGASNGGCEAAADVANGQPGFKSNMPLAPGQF

SMILES	EC50 (Estrogen receptor [2]) [nM]	EC50 (Estrogen receptor beta [3]) [nM]	EC50 (Estrogen receptor beta [4]) [nM]	EC50 (Estrogen receptor [5]) [nM]	EC50 (Estrogen receptor [6]) [nM]	EC50 (Estrogen receptor beta [7]) [nM]	further results
CCCc1c(OCCCOc2ccc(OCC(=O)O)cc2)ccc(C(C)=O)c1O	–	–	–	–	–	–	IC50 [1]: 12.6 nM
OC[C@H]1CCC[C@@H](c2ccc(O)cc2)CC1	> 10000	> 10000	121	221	> 10000	99	–
OC[C@@H]1CCC[C@H](c2ccc(O)cc2)CC1	> 11600	> 11600	51	199	> 11600	66	Activity [8]: inactive; Activity (Estrogen receptor beta [9]): Active; Activity [10]: inactive; Activity [11]: inactive; EC50 (Estrogen receptor [12]): 2660 nM; EC50 (Estrogen receptor beta [13]): 566 nM; Ratio EC50 (Homo sapiens [14]): 4.7; Activity [15]: Active; Activity [16]: inactive
C=Cc1cc(O)cc2nc(-c3ccc(O)c(F)c3)oc12	–	–	–	–	–	–	Ratio IC50 (Homo sapiens [17]): 255
C=Cc1cc(O)cc2nc(-c3ccc(O)cc3)oc12	–	–	–	–	–	–	Selectivity ratio (Homo sapiens [18]): 127
N#Cc1cc(O)cc2c3c(oc12)-c1ccc(O)cc1CC3	–	–	–	–	–	–	Selectivity ratio (Homo sapiens [18]): 157
Oc1ccc(C23CCCC(CC2)CO3)cc1 (racemic)	–	–	–	–	–	509	–
OCCC1CCCC(c2ccc(O)cc2)CC1 (racemic)	> 10000	> 10000	139	–	> 10000	75	–
OCC1CCCC(c2ccc(O)cc2)CC1 (racemic)	10500	> 100000	33	99	> 10000	53	IC50 (Cytochrome P450 3A4): 33000 nM; inhibition [19]: 19%; inhibition [20]: -4.8%; inhibition [21]: -7.3%; inhibition [22]: -3.7%; inhibition [23]: -0.1%; inhibition [24]: 17.1%; inhibition [25]: 2.7%; inhibition [26]: 16%; IC50 (Cytochrome P450 1A2): 130000 nM; inhibition [27]: 14.6%; inhibition [28]: 31.9%; solubility [29]: Soluble; IC50 (Cytochrome P450 2D6): 73000 nM; inhibition [30]: -8.5%; Activity (MCF7): Active; inhibition [31]: -4.9%; inhibition [32]: 25.3%; inhibition at 1.5 h, 10 µM (hERG (KCNH2)): -1.7%; IC50 (Cytochrome P450 2C9): 2700 nM
OC[C@H]1CCC[C@H](c2ccc(O)cc2)CC1 (stereo in doubt)	> 3000	> 35600	50	96	> 35600	18	–
CCC(=O)[C@@]1(C)CC[C@H]2[C@@H]3CCC4=CC(=O)CCC4=C3CC[C@@]21C [PROMEGESTONE]	–	–	–	–	–	–	IC50 (Progesterone receptor): 0.236 nM

Continued, in another order:

EC50 (Estrogen receptor [2]) [nM]	EC50 (Estrogen receptor beta [3]) [nM]	EC50 (Estrogen receptor beta [4]) [nM]	EC50 (Estrogen receptor [5]) [nM]	EC50 (Estrogen receptor [6]) [nM]	EC50 (Estrogen receptor beta [7]) [nM]	SMILES	further results
> 10000	> 10000	362	–	> 10000	42	Oc1ccc(C2CCCC(O)CC2)cc1 (racemic)	–
> 10000	> 10000	> 800	–	> 10000	600	O/N=C1\CCCC(c2ccc(O)cc2)CC1 (racemic)	–
–	–	–	–	–	435	O=C1CCCC(c2ccc(O)cc2)CC1 (racemic)	–
> 10000	> 23200	48	61	> 10000	28	OC[C@@H]1CCC[C@@H](c2ccc(O)cc2)CC1 (stereo in doubt)	–

Reference: ChEMBL document CHEMBL4261581, “Synthesis and evaluation of 4-cycloheptylphenols as selective Estrogen receptor-β agonists (SERBAs)” (Eur J Med Chem, 2018)
